In US8853406B2, “Substituted phenylenediamines as inhibitors of the interaction between MDM2 and P53” (Janssen Pharmaceutica NV, priority 2007, dated 2014):

Assays:
[1] = Chemical stability of Form I (HPLC and visual inspection after storage); format: physicochemical
Description: The chemical stability of Form I of compound No. 1 was studied according to the following procedure:
Form I was stored in different open conditions for periods of 1, 4 and 8 weeks. These conditions are 40° C./75% RH, 50° C., RT/<5% RH, RT/56% RH, RT/75% RH and 0.3 da ICH light.
The compounds were analyzed after storage by HPLC and by visual inspection.

[2] = Physical properties of the solid state forms; format: physicochemical
Description: Form I was denoted as a crystalline, non-hygroscopic solid that melts at approximately 192° C. Form II was described as a crystalline solid with a melting point at approximately 186° C.

[3] = Crystallographic stability of Form I (TGA, DSC, XRPD, IR after storage); format: physicochemical; design: key to XRD / IR: ~Ref: identical with reference; Cryst.: crystalline
Description: The crystallographic stability of Form I of compound No. 1 was studied according to the following procedure:
after storage of the compound in open conditions for a period of six weeks at room temperature (RT) under <5%, 56% and 75% relative humidity (RH), 50° C. and 40° C./75% RH., the samples were analyzed with thermogravimetry (TGA), differential scanning calorimetry (DSC), X-ray powder diffraction (XRPD) and infrared spectroscopy (IR).

[4] = Slurry conversion experiment; format: physicochemical; conditions: various solvents, 50° C., 24 hours
Description: Concentrated/saturated solutions of compound No. 1 drug substance were prepared at 50° C. in 13 different solvents (water, methanol, ethanol, 2-propanol, acetone, acetonitrile, toluene, tetrahydrofuran, dichloromethane, 2-butanone, ethyl acetate, dimethylformamide, 1-methoxy-2-propanol) to support the automated polymorph screen. […] The slurry solids were retrieved from their solvent systems, dried under an air stream, placed under vacuum at room temperature overnight, and then analyzed for slurry conversion using XRD.

[5] = system: p53 in A2780 cells; assay: p53 ELISA in A2780 cells (capacity to preserve p53); format: cell-based; conditions: lowest dose giving at least 140% of the p53 value of the control, 16 hours
Description: The capacity of the compounds to preserve p53 in A2780 cells was measured with the p53 enzyme linked immunosorbent assay. The p53 assay is a “sandwich” enzyme immunoassay employing two polyclonal antibodies. A polyclonal antibody, specific for the p53 protein, has been immobilized onto the surface of the plastic wells. Any p53 present in the sample to be assayed will bind to the capture antibody. The biotinylated detector polyclonal antibody also recognizes p53 protein, and will bind to any p53, which has been retained by the capture antibody. The detector antibody, in turn, is bond by horseradish peroxidase-conjugated streptavidin. The horseradish peroxidase catalyses the conversion of the chromogenic substrate o-phenylene diamine, the intensity of which is proportional to the amount of p53 protein bond to the plate. The colored reaction product is quantified using a spectrophotometer. Quantitation is achieved by the construction of a standard curve using known concentrations of purified recombinant HIS tagged p53 protein (see example C.1.).
A2780 cells (ATCC) were cultivated in RPMI 1640 supplemented with 10% fetal calf serum (FCS), 2 mM L-glutamine and gentamycin at 37° C. in a humidified incubator with 5% CO2.
A2780 cells were seeded at 20.000 cells per well in a 96 well plate, cultured for 24 hours and treated with compound for 16 hours at 37° C. in a humidified incubator. After incubation, the cells were washed once with phosphate-buffered saline and 30 μl, per well, low salt RIPA buffer (20 mM tris, pH7.0, 0.5 mM EDTA, 1% Nonidet P40, 0.5% DOC, 0.05% SDS, 1 mM PMSF, 1 μg/ml aprotinin and 0.5 μ/ml leupeptin) was added. Plates were placed on ice for 30 minutes to complete the lysis. p53 protein was detected in de lysates by using the sandwich ELISA, described below.
High binding polystyrene EIA/RIA 96 well plates (Costar 9018) were coated with the capture antibody pAb1801 (Abcam ab28-100) at a concentration of 1 μg/ml in coating buffer (0.1 M NaHCO3 pH8.2), 50 μl per well. The antibody was allowed to adhere overnight at 4° C. Coated plates were washed once with phosphate-buffered saline (PBS)/0.05% Tween 20 and 300 μl of blocking buffer (PBS, 1% bovine serum albumins (BSA)) was added, for an incubation period of 2 hours at room temperature. Dilutions of purified recombinant HIS tagged p53 protein, ranging from 3-200 ng/ml, were made in blocking buffer and used as standards.
Plates were washed twice with PBS/0.05% Tween 20 and blocking buffer or standards were added at 80 μl/well. To the standards, 20 μl of lysis buffer was added. The samples were added to the other wells at 20 μl lysate/well. After an overnight incubation at 4° C., plates were washed twice with PBS/0.05% Tween 20. Aliquots of 100 μl secondary polyclonal antibody p53(FL-393) (Tebubio, sc-6243) at a concentration of 1 μg/ml in blocking buffer were added to each well and allowed to adhere for 2 hours at room temperature. Plates were washed three times with PBS/0.05% Tween 20. Detection antibody anti-rabbit HRP (sc-2004, Tebubio) at 0.04 μg/ml in PBS/1% BSA was added and incubated for 1 hour at room temperature. Plates were washed three times with PBS/0.05% Tween 20 and 100 μl of substrate buffer was added (substrate buffer was prepared shortly before use by adding 1 tablet of 10 mg o-phenylene diamine (OPD) from Sigma and 125 μl 3% H2O2 to 25 ml OPD buffer: 35 mM citric acid, 66 mM Na2HPO4, pH5.6). After 5 to 10 minutes, colour reaction was stopped by adding 50 μl stop buffer (1 M H2SO4) per well. The absorbance at dual wavelengths of 490/655 nm was measured using a Biorad micro plate reader and the results were then analyzed.
For each experiment, controls (containing no drug) and a blank incubation (containing no cells or drugs) were run in parallel. The blank value was subtracted from all control and sample values. For each sample, the value of p53 (in absorbance units) was expressed as the percentage of the value for p53 present in the control. […]

[6] = system: Male NMRI mice; assay: Ro-4-1284 antagonism in mice (drug induced neurological effects); format: in vivo; conditions: Ro-4-1284 antagonism in mice
Description: The test is a modification of a procedure described by Colpaert et al. (1975).^3 Male NMRI mice (22±3 g) were housed in macrolon observation cages (L×W×H: 11×12×17 cm; n=3 per cage). At the start of the experiments immediately before test compound administration, the initial body temperature of the mice was measured with a precision of 0.1° C. by inserting the thermo-sensitive probe (1.0 mm diameter) of an electric thermometer (Comark) to a constant depth of 3 cm into the esophagus until a stable reading was obtained. The right eye pupil diameter was measured with a graduated microscope and expressed in 1/24 mm units. Fifteen min after test compound administration, the mice were challenged with Ro-4-1284 (10 mg/kg, s.c.). Ro-4-1284 is a reserpine-like vesicular monoamine transport (VMAT-2) inhibitor, which rapidly depletes secretory vesicles.^3,4 Fifteen, 30 and 60 min after challenge, the mice were scored for palpebral opening (0, 1, 2, 3, 4, 5) and locomotor activity (−1, 0, 1, 2, 3). At the 60-min interval, immediately after the scoring of overt behavior, the right eye pupil diameter and the esophageal temperature were measured again. Abnormal phenomena such as intensive sniffing, chewing, rearing, hyperemia, piloerection, salivation, tremors, convulsions and death were noted (the latter phenomena were also noted when occurring before Ro-4-1284 administration). Criteria for drug-induced effects: reversal of ptosis: palpebral opening score >1 at 15, 30 or 60 min (2.7, 0.5 and 0% false positive controls, respectively; n>350); induction of prostration: score −1 for locomotion at 15, 30 or 60 min (never observed in controls); reversal of hypomotility: score >0 for locomotion at 15, 30 and 60 min (2.2, 0.8 and 0% false positive controls, respectively); reversal of miosis: pupil diameter >5 units at 60 min (0.8% false positives); potentiation of hypothermia: temperature decrease (over the 1-h time interval)>9.0° C. (1.4% false positives); reversal of hypothermia: temperature decrease <3.0° C. (1.8% false positives).
According to the standard procedure, R0-4-1284 is injected 15 min following subcutaneous or oral administration and observations start 15 min later. Doses are initially given to 3 animals. When at least 2 out of the 3 animals show activity for at least one of the observations, the compound is considered active.

[7] = system: p53 in U87MG cells; assay: U87MG p53-elisa as described in EP1809622; format: cell-based; conditions: lowest dose giving at least 140% of the p53 value of the control

Compound: Cc1cc(Nc2ccnc3c2CCC3O)ccc1NCCc1c[nH]c2c(C)cccc12 (stereo not drawn) [Form I]
- Appearance ([1]; 0.3da ICH light (1 week)): brown-grey
- HPLC Sum of impurities ([1]; 0.3da ICH light (1 week)): 0.18%
- Appearance ([1]; 40° C./75% RH, 1 week): brown-grey
- HPLC Sum of impurities ([1]; 40° C./75% RH, 1 week): 0.13%
- Appearance ([1]; 40° C./75% RH, 4 weeks): brown-grey
- HPLC Sum of impurities ([1]; 40° C./75% RH, 4 weeks): 0.14%
- Appearance ([1]; 40° C./75% RH, 8 weeks): brown-grey
- HPLC Sum of impurities ([1]; 40° C./75% RH, 8 weeks): 0.2%
- Appearance ([1]; 50° C., 1 week): brown-grey
- HPLC Sum of impurities ([1]; 50° C., 1 week): 0.28%
- Appearance ([1]; 50° C., 4 weeks): brown-grey
- HPLC Sum of impurities ([1]; 50° C., 4 weeks): 0.14%
- Appearance ([1]; 50° C., 8 weeks): brown-grey
- HPLC Sum of impurities ([1]; 50° C., 8 weeks): 0.24%
- Appearance ([1]; RT/56% RH, 4 weeks): brown-grey
- HPLC Sum of impurities ([1]; RT/56% RH, 4 weeks): 0.22%
- Appearance ([1]; RT/56% RH, 8 weeks): brown-grey
- HPLC Sum of impurities ([1]; RT/56% RH, 8 weeks): 0.24%
- Appearance ([1]; RT/75% RH, 4 weeks): brown-grey
- HPLC Sum of impurities ([1]; RT/75% RH, 4 weeks): 0.2%
- Appearance ([1]; RT/75% RH, 8 weeks): brown-grey
- HPLC Sum of impurities ([1]; RT/75% RH, 8 weeks): 0.18%
- Appearance ([1]; RT/<5% RH, 4 weeks): brown-grey
- HPLC Sum of impurities ([1]; RT/<5% RH, 4 weeks): 0.19%
- Appearance ([1]; RT/<5% RH, 8 weeks): brown-grey
- HPLC Sum of impurities ([1]; RT/<5% RH, 8 weeks): 0.24%
- Appearance ([1]; Reference (1 week)): brown-grey
- HPLC Sum of impurities ([1]; Reference (1 week)): 0.23%
- chemical stability ([1]; open storage 1, 4 and 8 weeks, all investigated conditions): chemically stable in all investigated conditions
- hygroscopicity [2]: non-hygroscopic
- App ([3]; 0 days): brown-grey
- DSC Max ([3]; 0 days): 192.1 °C
- DSC ΔH ([3]; 0 days): 122 J/g
- IR ([3]; 0 days): Cryst., Ref
- TGA <175° C. ([3]; 0 days): 0.05%
- TGA <225° C. ([3]; 0 days): 0.19%
- XRD ([3]; 0 days): Cryst., Ref
- crystallographic stability ([3]; open storage six weeks, all conditions): crystallographically stable
- App ([3]; six weeks open, 40° C./75% RH): brown-grey
- DSC Max ([3]; six weeks open, 40° C./75% RH): 191.7 °C
- DSC ΔH ([3]; six weeks open, 40° C./75% RH): 123 J/g
- IR ([3]; six weeks open, 40° C./75% RH): ~Ref
- TGA <175° C. ([3]; six weeks open, 40° C./75% RH): 0.06%
- TGA <225° C. ([3]; six weeks open, 40° C./75% RH): 0.19%
- XRD ([3]; six weeks open, 40° C./75% RH): ~Ref
- App ([3]; six weeks open, 50° C.): brown-grey
- DSC Max ([3]; six weeks open, 50° C.): 191.6 °C
- DSC ΔH ([3]; six weeks open, 50° C.): 122 J/g
- IR ([3]; six weeks open, 50° C.): ~Ref
- TGA <175° C. ([3]; six weeks open, 50° C.): 0%
- TGA <225° C. ([3]; six weeks open, 50° C.): 0.2%
- XRD ([3]; six weeks open, 50° C.): ~Ref
- App ([3]; six weeks open, RT/56% RH): brown-grey
- DSC Max ([3]; six weeks open, RT/56% RH): 191.8 °C
- DSC ΔH ([3]; six weeks open, RT/56% RH): 108 J/g
- IR ([3]; six weeks open, RT/56% RH): ~Ref
- TGA <175° C. ([3]; six weeks open, RT/56% RH): 0.15%
- TGA <225° C. ([3]; six weeks open, RT/56% RH): 0.2%
- XRD ([3]; six weeks open, RT/56% RH): ~Ref
- App ([3]; six weeks open, RT/75 % RH): brown-grey
- DSC Max ([3]; six weeks open, RT/75 % RH): 191.7 °C
- DSC ΔH ([3]; six weeks open, RT/75 % RH): 112 J/g
- IR ([3]; six weeks open, RT/75 % RH): ~Ref
- TGA <175° C. ([3]; six weeks open, RT/75 % RH): 0.14%
- TGA <225° C. ([3]; six weeks open, RT/75 % RH): 0.25%
- XRD ([3]; six weeks open, RT/75 % RH): ~Ref
- App ([3]; six weeks open, RT/<5% RH): brown-grey
- DSC Max ([3]; six weeks open, RT/<5% RH): 191.7 °C
- DSC ΔH ([3]; six weeks open, RT/<5% RH): 125 J/g
- IR ([3]; six weeks open, RT/<5% RH): ~Ref
- TGA <175° C. ([3]; six weeks open, RT/<5% RH): 0%
- TGA <225° C. ([3]; six weeks open, RT/<5% RH): 0.31%
- XRD ([3]; six weeks open, RT/<5% RH): ~Ref
- form conversion when slurried [4]: No form conversion was observed

Compound: Cc1cc(Nc2ccnc3c2CCC3O)ccc1NCCc1c[nH]c2c(C)cccc12 (stereo not drawn) [compound 3]
- A2780 p53-elisa LAD [5]: 1.00E-07

Compound: OC1CCc2c(Nc3ccc(NCCc4c[nH]c5ccccc45)cc3)ccnc21 (stereo not drawn) [drawing 33]
- drug induced neurological side effects [6]: yes
- A2780 p53-elisa LAD [5]: 1.00E-07
- U87MG p53-elisa LAD [7]: 1.00E-06

Compound: OC1CCc2c(Nc3ccc(NCCc4c[nH]c5ccccc45)cc3)ccnc21 (stereo not drawn) [drawing 34]
- drug induced neurological side effects [6]: yes
- A2780 p53-elisa LAD [5]: 3.00E-07
- U87MG p53-elisa LAD [7]: 1.00E-07
